Reference: US12234216B2, “Isotopologues salts, crystalline forms, stereoisomers, of methylone and ethylone and methods of use thereof” (Terran Biosciences Inc., priority 2021, dated 2025)
Counter-ions that a name gives are not always drawn.

Key:
[1] = Dynamic vapor sorption (DVS); format: physicochemical
Male Sprague-Dawley rats = assay: Rat elevated zero-maze model of anxiety; format: in vivo
Source text: The rat zero-maze model is a refined alternative to the plus-maze, the most widely used animal model of anxiety, and consists of an elevated annular platform, divided equally into four quadrants. Two opposite quadrants are enclosed by Perspex walls on both the inner and the outer edges of the platform, while the remaining two opposite quadrants are open being enclosed only by a Perspex “lip”. Animals will show a preference for the closed areas, and avoidance of the open sections is assumed to stem from a rodent's natural aversion to open, exposed spaces. The primary index of anxiety, which reflect changes in open arm preference, is the percentage of time spent on the open areas. A reduction in the amount of activity on the open areas is considered to reflect an increase in anxiety. Other, ethologically-based behaviours are also assessed as indices of anxiety. One of the most important is stretched attend postures (SAP) from closed to open quadrants. […] Shepherd, J K; et al., (1994) Behavioural and pharmacological validation of the elevated “zero-maze” as an animal model of anxiety. Psychopharmacol., 116:56-64.
Male Sprague-Dawley 200-250 g (Envigo UK) rats were used. Animals were group-housed (5 per cage; cage size: 40×40×20 cm) in a temperature-controlled environment (22±2° C.), under a 12 h light-dark cycle (lights on: 08:00 hours) for one week prior to testing. Food and water were freely available. Number of animals per group=5. Animals were moved into the experimental room 16-24 hours before testing.
The elevated 0-maze comprises a black Perspex annular platform (105 cm diameter, 10 cm width) elevated to 65 cm above ground level, divided equally into four quadrants. Two opposite quadrants are enclosed by clear red Perspex walls (27 cm high) on both the inner and outer edges of the platform, while the remaining two opposite quadrants are surrounded only by a Perspex “lip” (1 cm high) which serves as a tactile guide to animals on these open areas.
Subjects were weighed and tail marked before being injected. After a specified pre-treatment time, subjects were placed in a closed quadrant and a 5-min test period were recorded on videotape for subsequent analysis. The maze were cleaned with 5% methanol/water solution and dried thoroughly between test sessions. Behavioural measures comprise percentage time spent on the open areas (% TO) and frequency of stretched attend postures (SAP) from closed to open quadrants. Since the control groups were all treated identically with the same vehicle these were combined to increase power. The Chlordiazepoxide groups were also treated identically with the same dose so these were also combined to increase power. Animals are scored as being in the open area when all four paws were in an open quadrant and in the closed area only when all four paws have passed over the open-closed divide. All testing were carried out between 9.00 and 16.00 hours.
For each study, a 1-way ANOVA was conducted across vehicle, CDP, and drug treatment groups. Each group was compared to the vehicle group and a p-value for treatment determined by Fishers Least Significant Difference (LSD) test. This analysis was performed in GraphPad Prism (Version 9). Formulations: […]
Intraperitoneal (IP): Racemic methylone HCl was formulated in Vehicle 1 (Saline) for injection to concentrations of 1, 3 and 6 mg/mL to provide doses of 5, 15 and 30 mg/kg when administered ip in 5 mL/kg dosing volumes.
Intraperitoneal (IP): S-methylone HCl was formulated in Vehicle 1 (Saline) for injection to concentrations of 0.5, 1, 1.5, 3 and 6 mg/mL to provide doses of 2.5, 5, 7.5, 15 and 30 mg/kg when administered ip in 5 mL/kg dosing volumes.
Intraperitoneal (IP): R-methylone HCl was formulated in Vehicle 1 (Saline) for injection to concentrations of 1, 3 and 6 mg/mL to provide doses of 5, 15 and 30 mg/kg when administered ip in 5 mL/kg dosing volumes. […]

CNC(C)C(=O)c1ccc2c(c1)OCO2 (racemic) [(rac)-Methylone Hydrochloride, 3,4-methylenedioxy-N-methylcathinone hydrochloride]
relative humidity above which water uptake is seen ([1]; DVS (FIG. 26)): above 75 % RH | physical stability after the moisture sorption-desorption analysis ([1]; between 5% RH and 95% RH): physically stable | behaviour of the material on humidity exposure ([1]; exposed to 75% RH for 2 hours): became tacky and stuck to the vial | overall effect on anxiety (Male Sprague-Dawley rats; 5 mg/kg ip): anxiogenic effect | time spent in the open arms (Male Sprague-Dawley rats; 5 mg/kg ip, vs placebo): decrease in time spent in the open arms vs placebo | frequency of SAPs (Male Sprague-Dawley rats; 15 mg/kg ip): dose dependent decrease in SAPs | overall effect on anxiety (Male Sprague-Dawley rats; 15 mg/kg ip): mixed anxiogenic anxiolytic effect | decrease in SAPs compared with chlordiazepoxide (Male Sprague-Dawley rats; 15 mg/kg ip vs chlordiazepoxide 6 mg/kg ip): not as effective as chlordiazepoxide | time spent in the open arms (Male Sprague-Dawley rats; 15 mg/kg ip, vs placebo): no difference from placebo in time spent in the open arms | frequency of SAPs (Male Sprague-Dawley rats; 30 mg/kg ip): decrease in SAPs | time spent in the open arms (Male Sprague-Dawley rats; 30 mg/kg ip): significant decrease in time spent in the open arms | anxiolytic effects compared with chlordiazepoxide (Male Sprague-Dawley rats; high dose level): anxiolytic effects as effective as chlordiazepoxide | anxiogenic effects at lower doses (Male Sprague-Dawley rats; lower doses, ip): anxiogenic effects at lower doses | time in the open arms (Male Sprague-Dawley rats; specific doses, ip, 30 min pretest, FIGS. 62-64): increase time in the open arms | frequency of SAPs (Male Sprague-Dawley rats; specific doses, ip, 30 min pretest, vs chlordiazepoxide 6 mg/kg, FIGS. 65-67): decreased the frequency of SAPs as effectively as the benzodiazepine chlordiazepoxide
